According to US10738028B2, “Spiro three-membered ring, spiro five-membered ring peptide deformylase inhibitor and use thereof in antibacteria and anti-tumor” (priority 2016, dated 2020):

How the values were obtained:
Format in all cases: cell-based
[1] = test system: HCT-116 colorectal cancer cell line; experiment: CCK-8 proliferation inhibition; settings: concentration of 30 μM, 72 hours, CCK-8
Method in brief: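 2000 cells/well, McCoy's 5A + 10% newborn bovine serum; overnight attach, 37° C./5% CO2. Cpd from DMSO stock diluted in medium, 72 h. Readout: CCK-8 (1:10). Ctrl 1‰ DMSO.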

[2] = test system: MGC-803 gastric cancer cell line; experiment: CCK-8 proliferation inhibition; settings: Homo sapiens, MGC-803, 72 h, concentration of 30 μM
Description: (§1) 2. The present invention adopts the CCK-8 method to determine the proliferation inhibition effect of the spiro three-membered ring, spiro five-membered ring peptide deformylase inhibitor as described in Examples 1-80 against colorectal cancer cells, lung cancer cells, gastric cancer cells, liver cancer cells, and the like. […] The compound having the best activity synthesized in Example 64 was further tested for its inhibitory activity against other tumor cells including T cell leukemia, acute myeloid leukemia, cervical cancer, breast cancer, prostate cancer and osteosarcoma, and the like (see Table 7).
(§2) (1) HCT-116 colorectal cancer cell line, A549 lung cancer cell line, MGC-803 gastric cancer cell line, BEL-7402 liver cancer cell line, Jurkat T cell leukemia cell line, HL60 acute myeloid leukemia cell line, Hela cervical cancer cell line, MCF-7 breast cancer cell line, PC3 prostate cancer cell line and SAOS-2 osteosarcoma cell line were made into single cell suspension, 180 μL of which was inoculated into 96-well culture plate, which was cultured overnight in CO2 incubator (37° C., 5% CO2, 95% air).
(§3) (2) Each of the spiro three-membered ring, spiro five membered ring peptide deformylase inhibitors was dissolved in DMSO, and was further formulated into drug solution with required different final concentration using corresponding cell culture medium. The drug solutions were added to the above cells respectively (20 μL/well), with the control group added with 1‰ DMSO, and cultured in a CO2 incubator for 72 hours.
(§4) (3) After incubation for 72 hours, the culture solution was decanted, and 100 μL of 1:10 diluted CCK-8 solution was added.
(§5) Wherein, in step (1), the concentration of the single cell suspension was 2000 cells/well.
(§6) Wherein, in step (2), HCT-116 cells were cultured in McCoy's 5A medium (containing 10% newborn bovine serum, 1% double antibody); A549 and PC3 cells were cultured in F12 medium (containing 10% newborn bovine serum, 1% double antibody); MGC-803, BEL-7402, SAOS-2, Jurkat and HL60 cells were cultured in 1640 medium (containing 10% newborn bovine serum, 1% double antibody); and MCF-7 and Hela cells were cultured in DMEM high glucose medium (containing 10% newborn bovine serum, 1% double antibody).

[3] = test system: A549 lung cancer cell line; experiment: CCK-8 proliferation inhibition; settings: Homo sapiens, A549, 72 h, concentration of 30 μM
Description: as §1, §2, §3, §4, §5, §6

[4] = test system: BEL-7402 liver cancer cell line; experiment: CCK-8 proliferation inhibition; settings: concentration of 30 μM
Description: as §1, §2, §3, §4, §5, §6

[5] = test system: methicillin-resistant Staphylococcus epidermidis (MRSE); experiment: MIC, two-fold agar dilution (CLSI), clinical isolates
Method in brief: (§7)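 Test samples were assayed by the CLSI-recommended two-fold agar dilution method, and the minimum inhibitory concentration against each tested strain was determined.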

[6] = test system: methicillin-sensitive Staphylococcus epidermidis (MSSE); experiment: as above
Method in brief: as §7

[7] = test system: Enterococcus faecalis (EFA); experiment: as above
Method in brief: as §7

[8] = test system: methicillin-resistant Staphylococcus aureus (MRSA); experiment: as above
Method in brief: as §7

[9] = test system: Escherichia coli (including ESBLs, non-ESBLs); experiment: as above
Method in brief: as §7

[10] = test system: methicillin-sensitive Staphylococcus aureus (MSSA); experiment: as above
Method in brief: as §7

[11] = test system: Moraxella catarrhalis (BCA); experiment: as above
Method in brief: as §7

[12] = test system: Streptococcus pneoumoniae (SPN); experiment: as above
Method in brief: as §7

[13] = test system: Enterococcus faecium (EFM); experiment: as above
Method in brief: as §7

Work on CCCC[C@H](CC(=O)NO)C(=O)N1CC2(CC2)C[C@H]1C(=O)Nc1nc(C)cs1 [Example 51, (S)-5-((R)-2-(2-(hydroxyamino)-2-oxoethyl)hexanoyl)-N-(4-methylthiazol-2-yl)-5-spiro[2.4]heptane-6-carboxamide] yielded an inhibition at 30 µM ([1]; Homo sapiens, HCT-116, 72 h, read-out: HCT116 inhibition rate/%) greater than 50%, an HCT116 inhibition rate/% ([1]; 30 µM) of 65% and an inhibition at 30 µM [2] of 40%. The inhibition at 30 µM [3] was 44%, the inhibition at 30 µM ([4]; Homo sapiens, Bel-7402, 72 h) was greater than 50% and the “Inhibition of proliferation, Liver cancer BEL-7402” value ([4]; 72 hours, 30 µM) was 68%. For the same molecule, the Anti-bacterial activity (MIC), strain MRSE 15-1 ([5]; clinical isolate MRSE 15-1) was 0.06 µg/mL, the Anti-bacterial activity (MIC), strain MRSE 15-2 ([5]; clinical isolate MRSE 15-2) was 0.25 µg/mL and the Anti-bacterial activity (MIC), strain MRSE 15-3 ([5]; clinical isolate MRSE 15-3) was 0.25 µg/mL. It also gave an Anti-bacterial activity (MIC), strain MRSE 15-7 ([5]; clinical isolate MRSE 15-7) of 0.25 µg/mL, an Anti-bacterial activity (MIC), strain MSSE 15-3 ([6]; clinical isolate MSSE 15-3) of 0.125 µg/mL and an Anti-bacterial activity (MIC), strain MSSE 15-4 ([6]; clinical isolate MSSE 15-4) of 0.125 µg/mL. It also gave an Anti-bacterial activity (MIC), strain MSSE 15-5 ([6]; clinical isolate MSSE 15-5) of 0.06 µg/mL, an Anti-bacterial activity (MIC), strain MSSE 15-6 ([6]; clinical isolate MSSE 15-6) of 0.06 µg/mL and an Anti-bacterial activity (MIC), strain EFA 15-1 ([7]; clinical isolate EFA 15-1) of 8 µg/mL. It also gave an Anti-bacterial activity (MIC), strain EFA 15-2 ([7]; clinical isolate EFA 15-2) of 8 µg/mL, an Anti-bacterial activity (MIC), strain EFA 15-3 ([7]; clinical isolate EFA 15-3) of 2 µg/mL and an Anti-bacterial activity (MIC), strain EFA 15-4 ([7]; clinical isolate EFA 15-4) of 8 µg/mL. The Anti-bacterial activity (MIC), strain EFA 15-5 ([7]; clinical isolate EFA 15-5) was 8 µg/mL, the Anti-bacterial activity (MIC), strain EFA 15-6 ([7]; clinical isolate EFA 15-6) was 8 µg/mL and the Anti-bacterial activity (MIC), strain EFA 15-9 ([7]; clinical isolate EFA 15-9) was 8 µg/mL. It also gave an Anti-bacterial activity (MIC), strain MRSA 15-1 ([8]; clinical isolate MRSA 15-1) of 0.25 µg/mL, an Anti-bacterial activity (MIC), strain MRSA 15-2 ([8]; clinical isolate MRSA 15-2) of 1 µg/mL and an Anti-bacterial activity (MIC), strain MRSA 15-3 ([8]; clinical isolate MRSA 15-3) of 0.2 µg/mL. The Anti-bacterial activity (MIC), strain MRSA 15-4 ([8]; clinical isolate MRSA 15-4) was 0.5 µg/mL, the Anti-bacterial activity (MIC), strain ECO+ 15-1 ([9]; clinical isolate ECO+ 15-1) was 16 µg/mL and the Anti-bacterial activity (MIC), strain ECO+ 15-2 ([9]; clinical isolate ECO+ 15-2) was greater than 32 µg/mL. It also gave an Anti-bacterial activity (MIC), strain ECO+ 15-3 ([9]; clinical isolate ECO+ 15-3) greater than 32 µg/mL, an Anti-bacterial activity (MIC), strain ECO+ 15-4 ([9]; clinical isolate ECO+ 15-4) of 32 µg/mL and an Anti-bacterial activity (MIC), strain ECO− 15-1 ([9]; clinical isolate ECO− 15-1) greater than 32 µg/mL. The Anti-bacterial activity (MIC), strain ECO− 15-2 ([9]; clinical isolate ECO− 15-2) was greater than 32 µg/mL, the Anti-bacterial activity (MIC), strain ECO− 15-3 ([9]; clinical isolate ECO− 15-3) was greater than 32 µg/mL and the Anti-bacterial activity (MIC), strain ECO− 15-4 ([9]; clinical isolate ECO− 15-4) was greater than 32 µg/mL. For the same molecule, the Anti-bacterial activity (MIC), strain MSSA 15-3 ([10]; clinical isolate MSSA 15-3) was 0.25 µg/mL, the Anti-bacterial activity (MIC), strain MSSA 15-4 ([10]; clinical isolate MSSA 15-4) was 0.125 µg/mL and the Anti-bacterial activity (MIC), strain MSSA 15-5 ([10]; clinical isolate MSSA 15-5) was 0.06 µg/mL. For the same molecule, the Anti-bacterial activity (MIC), strain MSSA 15-6 ([10]; clinical isolate MSSA 15-6) was 0.5 µg/mL, the Anti-bacterial activity (MIC), strain BCA 14-1 ([11]; clinical isolate BCA 14-1) was 2 µg/mL and the Anti-bacterial activity (MIC), strain BCA 14-4 ([11]; clinical isolate BCA 14-4) was 2 µg/mL. The Anti-bacterial activity (MIC), strain BCA 14-5 ([11]; clinical isolate BCA 14-5) was 0.5 µg/mL, the Anti-bacterial activity (MIC), strain BCA 14-6 ([11]; clinical isolate BCA 14-6) was 1 µg/mL and the Anti-bacterial activity (MIC), strain BCA 14-7 ([11]; clinical isolate BCA 14-7) was 0.5 µg/mL. For the same molecule, the Anti-bacterial activity (MIC), strain BCA 14-8 ([11]; clinical isolate BCA 14-8) was 1 µg/mL, the Anti-bacterial activity (MIC), strain BCA 14-10 ([11]; clinical isolate BCA 14-10) was 0.5 µg/mL and the Anti-bacterial activity (MIC), strain SPN 16-2 ([12]; clinical isolate SPN 16-2) was 8 µg/mL. It also gave an Anti-bacterial activity (MIC), strain SPN 16-4 ([12]; clinical isolate SPN 16-4) of 0.5 µg/mL, an Anti-bacterial activity (MIC), strain EFM 15-1 ([13]; clinical isolate EFM 15-1) of 2 µg/mL and an Anti-bacterial activity (MIC), strain EFM 15-2 ([13]; clinical isolate EFM 15-2) of 2 µg/mL. For the same molecule, the Anti-bacterial activity (MIC), strain EFM 15-3 ([13]; clinical isolate EFM 15-3) was 0.5 µg/mL, the Anti-bacterial activity (MIC), strain EFM 15-4 ([13]; clinical isolate EFM 15-4) was 2 µg/mL and the Anti-bacterial activity (MIC), strain EFM 15-5 ([13]; clinical isolate EFM 15-5) was 1 µg/mL. The Anti-bacterial activity (MIC), strain EFM 15-6 ([13]; clinical isolate EFM 15-6) was 2 µg/mL.
